Experiments:
[1] = molecular target: T1, full length tyrosine phosphatase PTP1B (Homo sapiens, UniProt P18031); assay: Inhibition of PTP1B (pNPP hydrolysis, absorbance at 405 nm); format: biochemical; conditions: 5 μM aminosteroid analogue; pNPP substrate; read-out: PTP1B % Inhib. at (5 μM)
T1 construct: purchased
T1 sequence (P18031 1-435): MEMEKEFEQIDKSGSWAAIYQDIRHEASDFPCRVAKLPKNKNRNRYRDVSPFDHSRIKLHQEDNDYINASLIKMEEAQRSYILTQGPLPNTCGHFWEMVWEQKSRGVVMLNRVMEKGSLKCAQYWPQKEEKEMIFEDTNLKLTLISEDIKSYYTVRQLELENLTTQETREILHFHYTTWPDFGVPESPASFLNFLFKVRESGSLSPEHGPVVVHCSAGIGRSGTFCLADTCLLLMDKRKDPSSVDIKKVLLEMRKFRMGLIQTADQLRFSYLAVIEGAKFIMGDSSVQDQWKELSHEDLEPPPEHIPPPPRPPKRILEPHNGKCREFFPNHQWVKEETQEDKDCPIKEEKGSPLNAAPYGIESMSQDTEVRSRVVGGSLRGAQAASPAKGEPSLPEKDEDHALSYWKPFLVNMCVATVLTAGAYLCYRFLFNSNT
Experimental: (§1) The aminosteroid analogues were tested for inhibition against the commercially available full length tyrosine phosphatase PTP1B. The ability of each analogue to inhibit the activity of PTP1B was measured in the presence of 5 μM of the aminosteroid analogue. The assay uses para-nitro-phenyl phosphate (pNPP), a non-specific substrate to assess phosphatase activity. Phosphatase activity was based on the ability of PTP1B to catalyze the hydrolysis of pNPP to p-nitrophenol (pNP).

full length TCPTP = molecular target: T2, full length TCPTP (Homo sapiens, UniProt P17706); assay: Inhibition of TCPTP (pNPP hydrolysis, same manner as PTP1B assay); format: biochemical; conditions: 200 μM inhibitor; pNPP substrate; read-out: TCPTP % Inhib. at (200 μM)
T2 construct: except full length TCPTP was used as the enzyme
T2 sequence (P17706 1-415): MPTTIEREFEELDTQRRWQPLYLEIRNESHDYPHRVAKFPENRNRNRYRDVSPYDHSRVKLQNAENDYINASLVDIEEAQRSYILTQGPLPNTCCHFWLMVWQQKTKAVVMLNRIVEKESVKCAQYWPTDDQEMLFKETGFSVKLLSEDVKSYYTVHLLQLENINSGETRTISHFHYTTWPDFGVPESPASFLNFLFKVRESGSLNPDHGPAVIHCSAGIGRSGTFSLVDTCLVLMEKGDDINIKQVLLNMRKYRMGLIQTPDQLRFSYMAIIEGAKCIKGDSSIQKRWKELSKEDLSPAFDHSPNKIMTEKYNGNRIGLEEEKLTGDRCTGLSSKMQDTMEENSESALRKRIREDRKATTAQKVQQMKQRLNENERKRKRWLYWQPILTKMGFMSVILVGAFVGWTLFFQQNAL
Experimental: as §1
The aminosteroid analogues were also tested for their ability to inhibit the tyrosine phosphatase TCPTP as an indication of their potential toxicity by the inhibition of the immune response. The TCPTP inhibition assay was done in the same manner as the PTP1B assay except full length TCPTP was used as the enzyme and the inhibitor was at a concentration of 200 μM. The results of the TCPTP inhibition assays are shown in Table 1, column 4 and show three compounds that inhibit TCPTP less than 50% even at a […] greater concentration.

[2] = Body weight change in ob/ob mouse; format: in vivo; conditions: ob/ob mice; 5 or 10 mg/kg ip every 3 days, 4 doses; % change in body weight vs study day 0, up to 30 days
Experimental: (§2) To determine in vivo efficacy of the aminosteroid analogues an ob/ob (Lep^ob) mouse model was used. Ob/ob mice are extensively used for screening of antidiabetic and/or anti-obesity agents. Ob/ob mice were treated with either saline or 5 or 10 mg/kg aminosteroid analogue every 3 days for a total of 4 doses via ip injection. Body weight, glucose tolerance and fasting blood glucose levels were measured for each group during the study. Each group had at least an N of 4 animals. All reagents and lab animals are commercially available.
Starting at study day 0, body weight measurements were taken every day for each group for up to 30 days. Percent change in body weight was calculated as the fractional response of body weight on study day X over the original body weight on study day 0.

ob/ob (Lep^ob) mouse [3] = assay: Oral glucose tolerance test (OGTT) in ob/ob mouse; format: in vivo; conditions: ob/ob mice; for change in vivo: Mus musculus, 336 h, 5 or 10 mg/kg ip every 3 days, 4 doses, OGTT study day 14, 1.5 g/kg oral glucose, 0-120 min, read-out: AbAUC % Change From Saline; for reduction in AbAUC compared to saline control (significance): OGTT study day 14, p<0.05
Experimental: as §2
On study day 14, an oral glucose tolerance test (OGTT) was performed to assess glucose tolerance. At time 0, an oral glucose challenge (1.5 g/kg) was administered by oral gavage. At time points 0, 15, 30, 60, 90, and 120 min post glucose load, 25 μl of whole blood was withdrawn from the tail vein of the animal and the glucose level was measured using a glucose analyzer. The glucose concentration vs time was plotted and the above baseline area under the curve (AbAUC) of the glucose excursion time curve was determined using trapezoidal rule analyses.

ob/ob (Lep^ob) mouse [4] = assay: Fasting blood glucose (FBG) in ob/ob mouse; format: in vivo; conditions: ob/ob mice; 5 or 10 mg/kg ip every 3 days, 4 doses; study day 14 after overnight fast
Experimental: as §2
On study day 13, all animal groups were fasted overnight. On study day 14, 25 μL of whole blood was collected and analyzed for the glucose level (mg/dL) using a glucose analyzer.

SMILES | inhibition at 5 µM [1] | inhibition at 200 µM (full length TCPTP) | % BW Nader [2] | change in vivo (ob/ob (Lep^ob) mouse [3]) | FBG % Change From Saline (ob/ob (Lep^ob) mouse [4]) | reduction in AbAUC compared to saline control (significance) (ob/ob (Lep^ob) mouse [3])
COC(=O)CC[C@@H](C)[C@H]1CCC2C3C[C@@H](O)[C@H]4C[C@H](NCCNC(C)C)CC[C@]4(C)C3CC[C@@]21C (some centres unmarked) [MSI-2514] | 96% | 30% | −1.5% | -11.6% | 9.2% | 
COC(=O)CC[C@@H](C)[C@H]1CCC2C3C(CC[C@@]21C)[C@@]1(C)CC[C@H](NCCNC(C)C)C[C@H]1C[C@H]3O (some centres unmarked) [MSI-2520] | 103% | 19% | 0.5% | -30.1% | 34.7% | significant reduction
COC(=O)CC[C@@H](C)[C@H]1CCC2C3C(CC[C@@]21C)[C@@]1(C)CCC(NCCNC(C)C)C[C@@H]1C[C@H]3NS(C)(=O)=O (some centres unmarked) [MSI-2527] | 102% | 15% | 0.0% | -33% | 32.2% | significant reduction
COC(=O)CC[C@@H](C)[C@H]1CCC2C3C(CC[C@@]21C)[C@@]1(C)CC[C@H](NCCNC(C)C)C[C@@H]1C[C@H]3NC(C)=O (some centres unmarked) [MSI-2532] | 53% | 4% | −0.8% | -56.6% | −0.7% | significant reduction
